Patent US11987582B2, “Maleate salts of triazolopyrazine derivatives, compositions, methods of use, and processes of manufacturing the same” (ABION Inc, priority 2021, dated 2024)
Like-named read-outs stand apart in the source and are kept apart here.

Legend:
[1] = PK parameters in plasma after single administration; format: in vivo, Wistar rats; details: for AUC(0-inf) / AUC(0-t) / Cmax / Tmax: Wistar, rat, plasma
[2] = PK parameters after bid (twice a day) administration; format: in vivo; details: for Cmax1 / Tmax1: after first daily dosing; for Cmax2 / Tmax2: after second daily dosing; for AUC / AUC(0-t): in vivo; for AUC: read-out: AUC(12-24 h)
Text: FIG. 10 and Table 4 show the PK properties of the compound of Chemical Formula 2 administered twice a day (bid).
FIG. 11 and Table 5 show the PK properties of the compound of Chemical Formula 1 administered twice per day.

[3] = tested on: lung cancer cell line EBC-1; assay: cancer cell proliferation inhibitory experiment (SRB); format: cell-based, human; details: EBC-1 cell line
Method: The following exemplary experimental protocol was performed to test the activity of the maleate salt compounds described herein.
An RPMI 1640 cell culture medium, fetal bovine serum (FBS) and trypsin were purchased from GIBCO Co., Ltd. (Grand Island, N.Y.), and sodium hydrogencarbonate, amphotericin B and gentamycin were used as signamic medical products. In addition, reagents such as sulforhodamine (SRB) B, Trisma Base, and trichloroacetic acid (TCA), which were reagents used in a cytotoxicity measurement experiment, were purchased from Sigma Chemical Co., Ltd. For MTS analysis, a Celltiter 96 Aqueous Non-Radioactive Cell Proliferation Assay product was purchased from Promega Co., Ltd. Further, a T-25 culture container used for cell culture, a 96-well plate and other disposable glass used for cell culture were obtained from Folkon (Lincoln Park, N.J.) products.
A drug used in the experiment was diluted as an experimental medium to a desired concentration in the test, and the final dimethylsulfoxide concentration was 0.5% or less.
Cancer cell lines used in the experiment were human-derived cancer cell lines, and a lung cancer cell line EBC-1. RPMI 1640 medium with 10% fetal bovine serum (FBS) was used and cultured in an incubator of 37° C. and 5% CO2 and subcultured once by 3 to 4 days.
Specifically, after the culture with the compound of the present disclosure was terminated, the culture solution was removed, and a cold TCA solution added to each well. The cells were left at 4° C. for 1 hour to be fixed. The TCA solution was removed, and the cells were dried at room temperature, incubated with a solution obtained by dissolving 0.4% SRB in a 1% acetic acid solution, left at room temperature for 30 minutes, and then stained. Extra SRB which was not bound to the cells was washed with a 1% acetic acid solution, and the SRB was eluted by adding a […] tris buffer solution (trisma base; unbuffered) of pH 10.3 to 10.5 to the stained cells.

[4] = thermodynamic solubility in formulation vehicles (phosphate buffer pH 7.4 with excipients); format: physicochemical; details: thermodynamic from solid
Method: In view of developing a formulation suitable for parenteral administration, the quantitative solubility of Chemical Formula land the Chemical Formula 2 were determined in phosphate buffer pH 7.4, supplemented with solubility-enhancing excipients. The target concentration is 1-1.3 mg/mL.
Based on the qualitative solubility result determined for the PBS formulation vehicle containing Transcutol (Gattefossé, France) and TPGS (tocopherol polyethylene glycol succinate), the quantitative solubility of the compound of Chemical Formula 1 and the compound of Chemical Formula 2 was determined in those vehicles to assess the maximum solubility in those vehicles. The thermodynamic solubility was then determined in PBS buffer containing Transcutol (50% and 10%) and TPGS (20% and 10%) and also in the formulation vehicles containing PEG 400 (50%, with and without presence of 2% DMSO). Suspensions of the compound of Chemical Formula 1 and the compound of Chemical Formula 2 were prepared in the selected vehicles with a compound of Chemical Formula 1 concentration of about 3.5-5 mg/mL. After incubation for 24 hours at room temperature, the solids and liquid phases were separated. The concentration of API in solution was determined by HPLC analysis. The results can be found in FIG. 6.

[5] = long-term stability study, chemical purity by HPLC; format: physicochemical; details: up to 15 months, in words
Method: The physical and chemical stability study was performed on the compounds of Chemical Formula 2 and Chemical Formula 1 (for reference purposes). The long-term stability study was conducted at defined temperatures and relative humidity levels (25° C./60% relative humidity (RH) and 40° C./75% RH). At regular intervals, a solid sample was analyzed by XRPD, TGMS and HPLC.
The results of the chemical purity determination for the compounds of Chemical Formula 1 and Chemical Formula 2 after 1-, 3- and 15-month exposure to 25° C./60% RH and 40° C./75% RH is presented in FIGS. 4 and 5.

## CN1CCN(Cc2ccc(-c3cnc(N4CCOC(Cn5nnc6ncc(-c7cnn(C)c7)nc65)C4)nc3)cc2)CC1 (stereo not drawn) [Chemical Formula 1]
[1]; 5 mg/kg IV
  AUClast/Dose: 1410 kg·nM·h/mg
  AUC∞/Dose: 1440 kg·nM·h/mg
  Cl: 0.000705 mg/h/nM/kg
  Vss: 0.00347 mg/nM/kg
  Vz: 0.00471 mg/nM/kg
  AUC(0-inf): 7.2 µM·h
  AUC(0-t): 7.06 µM·h
[1]; 5 mg/kg PO
  AUClast/Dose: 551 kg·nM·h/mg
  AUC∞/Dose: 562 kg·nM·h/mg
  F: 39.0%
  AUC(0-inf): 2.81 µM·h
  AUC(0-t): 2.75 µM·h
  Cmax: 343 nM
  Tmax: 4 h
[1]; 20 mg/kg PO
  AUClast/Dose: 488 kg·nM·h/mg
  AUC∞/Dose: 504 kg·nM·h/mg
  F: 35.0%
  AUC(0-inf): 10.1 µM·h
  AUC(0-t): 9.76 µM·h
  Cmax: 1080 nM
  Tmax: 4 h
[2]; 5 mg/kg IV (10 mg/kg/day)
  AUC(0-12 h)/Dose: 1070 kg·nM·h/mg
  AUC(12-24 h)/Dose: 1480 kg·nM·h/mg
  AUClast/Dose: 1410 kg·nM·h/mg
  Cl: 0.000733 mg/h/nM/kg
  Vss: 0.0076 mg/nM/kg
  Vz: 0.00265 mg/nM/kg
  AUC: 7.38 µM·h
[2]; 5 mg/kg PO (10 mg/kg/day)
  AUC(0-12 h)/Dose: 487 kg·nM·h/mg
  AUC(12-24 h)/Dose: 490 kg·nM·h/mg
  AUClast/Dose: 488 kg·nM·h/mg
  F: 34.6%
  Cmax1: 564 nM
  Tmax1: 3-4$ h
  Cmax2: 488 nM
  Tmax2: 13-14$ h
  AUC: 2.45 µM·h
[2]; 20 mg/kg PO (40 mg/kg/day)
  AUC(0-12 h)/Dose: 395 kg·nM·h/mg
  AUC(12-24 h)/Dose: 313 kg·nM·h/mg
  AUClast/Dose: 318 kg·nM·h/mg
  F: 22.6%
  Cmax1: 821 nM
  Tmax1: 1-3$ h
  Cmax2: 1000 nM
  Tmax2: 12.083-16$ h
  AUC: 6.26 µM·h
[2]; iv, 5 mg/kg, 5 mg/kg IV (10 mg/kg/day), read-out: AUC(0-12 h)
  AUC(0-t): 5.36 µM·h
[2]; iv, 5 mg/kg, 5 mg/kg IV (10 mg/kg/day), read-out: AUClast
  AUC(0-t): 14.1 µM·h
[2]; po, 5 mg/kg, 5 mg/kg PO (10 mg/kg/day), read-out: AUC(0-12 h)
  AUC(0-t): 2.44 µM·h
[2]; po, 5 mg/kg, 5 mg/kg PO (10 mg/kg/day), read-out: AUClast
  AUC(0-t): 4.88 µM·h
[2]; po, 20 mg/kg, 20 mg/kg PO (40 mg/kg/day), read-out: AUC(0-12 h)
  AUC(0-t): 7.9 µM·h
[2]; po, 20 mg/kg, 20 mg/kg PO (40 mg/kg/day), read-out: AUClast
  AUC(0-t): 12.7 µM·h
[3]
  GI50: 8.17 nM
[4]; PBS formulation vehicle with 10% TPGS, pH 7.4, aqueous with cosolvent or surfactant or cyclodextrin, PBS vehicle containing 10% TPGS, 24 hours at room temperature
  solubility at 24 h: ≥ 1000 µg/mL
[4]; PBS formulation vehicle with 10% Transcutol, pH 7.4, aqueous with cosolvent or surfactant or cyclodextrin, PBS vehicle with only 10% Transcutol, 24 hours at room temperature
  solubility at 24 h: ~100 µg/mL
[4]; PBS formulation vehicle with 20% TPGS, pH 7.4, aqueous with cosolvent or surfactant or cyclodextrin, PBS vehicle containing 20% TPGS, 24 hours at room temperature
  solubility at 24 h: ≥ 1000 µg/mL
[4]; PBS formulation vehicle with 50% Transcutol, pH 7.4, aqueous with cosolvent or surfactant or cyclodextrin, PBS vehicle containing 50% Transcutol, 24 hours at room temperature
  solubility at 24 h: ≥ 1000 µg/mL
[4]; formulation vehicles containing PEG 400, pH 7.4, aqueous with cosolvent or surfactant or cyclodextrin, vehicles containing PEG 400, 24 hours at room temperature
  solubility at 24 h: ~300 µg/mL
[5]; 25° C./60% RH
  chemical degradation: partial chemical degradation
[5]; 40° C./75% RH
  chemical degradation: more degradation
